Measurements published in ChEMBL document CHEMBL4507287, “Data for DCP probe MRL-650” (2021).

Columns and labels:
[1] = target: Tyrosine-protein kinase Mer (Homo sapiens) (UniProt Q12866); conditions: Compound concentration 1000.0 nM
Nociceptin receptor = Nociceptin receptor (Homo sapiens, UniProt P41146); test: GPCRScan assay: inhibition of NOP; parameters: radioligand conc. used [nm] 0.5 – 2.0, parental cells HEKT
[2] = target: LIM domain kinase 1 (Homo sapiens) (UniProt P53667); conditions: Compound concentration 1000.0 nM
[3] = target: Aurora kinase C (Homo sapiens) (UniProt Q9UQB9); conditions: Compound concentration 1000.0 nM
[4] = target: Serine/threonine-protein kinase 38-like (Homo sapiens) (UniProt Q9Y2H1); conditions: Compound concentration 1000.0 nM
[5] = system: Tyrosine-protein kinase ABL1 (Homo sapiens), P00519 [M351T]; conditions: Compound concentration 1000.0 nM
[6] = target: Phosphatidylinositol 4-phosphate 5-kinase type-1 gamma (Homo sapiens) (UniProt O60331); conditions: Compound concentration 1000.0 nM
[7] = target: Serine/threonine-protein kinase 32A (Homo sapiens) (UniProt Q8WU08); conditions: Compound concentration 1000.0 nM
[8] = target: RAF proto-oncogene serine/threonine-protein kinase (Homo sapiens) (UniProt P04049); conditions: Compound concentration 1000.0 nM
[9] = target: Serine/threonine-protein kinase SIK3 (Homo sapiens) (UniProt Q9Y2K2); conditions: Compound concentration 1000.0 nM
[10] = target: RAC-beta serine/threonine-protein kinase (Homo sapiens) (UniProt P31751); conditions: Compound concentration 1000.0 nM
[11] = target: Receptor-interacting serine/threonine-protein kinase 4 (Homo sapiens) (UniProt P57078); conditions: Compound concentration 1000.0 nM
[12] = target: Tyrosine-protein kinase HCK (Homo sapiens) (UniProt P08631); conditions: Compound concentration 1000.0 nM
[13] = target: Mitogen-activated protein kinase kinase kinase 10 (Homo sapiens) (UniProt Q02779); conditions: Compound concentration 1000.0 nM
[14] = target: Mitogen-activated protein kinase 3 (Homo sapiens) (UniProt P27361); conditions: Compound concentration 1000.0 nM
[15] = target: Ribosomal protein S6 kinase alpha-4 (Homo sapiens) (UniProt O75676); conditions: Compound concentration 1000.0 nM
[16] = target: Serine/threonine-protein kinase OSR1 (Homo sapiens) (UniProt O95747); conditions: Compound concentration 1000.0 nM
[17] = target: Ephrin type-A receptor 5 (Homo sapiens) (UniProt P54756); conditions: Compound concentration 1000.0 nM
[18] = target: Tyrosine-protein kinase JAK1 (Homo sapiens) (UniProt P23458); conditions: Compound concentration 1000.0 nM
Cannabinoid receptor 2 = Cannabinoid receptor 2 (Homo sapiens, UniProt P34972); test: Radioligand Binding Assay (CNR2)
[19] = target: Serine/threonine-protein kinase PAK 3 (Homo sapiens) (UniProt O75914); conditions: Compound concentration 1000.0 nM
[20] = target: Ephrin type-B receptor 4 (Homo sapiens) (UniProt P54760); conditions: Compound concentration 1000.0 nM
[21] = target: Serine/threonine-protein kinase N2 (Homo sapiens) (UniProt Q16513); conditions: Compound concentration 1000.0 nM
[22] = target: Ribosomal protein S6 kinase alpha-2 (Homo sapiens) (UniProt Q15349); conditions: Compound concentration 1000.0 nM
[23] = target: Mitogen-activated protein kinase kinase kinase kinase 4 (Homo sapiens) (UniProt O95819); conditions: Compound concentration 1000.0 nM
[24] = system: Tyrosine-protein kinase ABL1 (Homo sapiens), P00519 [H396P]; conditions: Compound concentration 1000.0 nM
[25] = target: Calcium/calmodulin-dependent protein kinase type 1 (Homo sapiens) (UniProt Q14012); conditions: Compound concentration 1000.0 nM
[26] = target: Calcium-dependent protein kinase 1 (Plasmodium falciparum) (UniProt P62344); conditions: Compound concentration 1000.0 nM
[27] = target: Muscarinic acetylcholine receptor M4 (Homo sapiens) (UniProt P08173); conditions: Compound concentration 10.0 uM
[28] = target: cGMP-dependent protein kinase 2 (Homo sapiens) (UniProt Q13237); conditions: Compound concentration 1000.0 nM
[29] = system: Tyrosine-protein kinase ABL1 (Homo sapiens), P00519 [Q252H]; conditions: Compound concentration 1000.0 nM
[30] = target: Protein-tyrosine kinase 6 (Homo sapiens) (UniProt Q13882); conditions: Compound concentration 1000.0 nM
[31] = target: Receptor tyrosine-protein kinase erbB-4 (Homo sapiens) (UniProt Q15303); conditions: Compound concentration 1000.0 nM
[32] = target: Serine/threonine-protein kinase NIM1 (Homo sapiens) (UniProt Q8IY84); conditions: Compound concentration 1000.0 nM
[33] = target: Cyclin-dependent kinase 13 (Homo sapiens) (UniProt Q14004); conditions: Compound concentration 1000.0 nM
[34] = system: Receptor-type tyrosine-protein kinase FLT3 (Homo sapiens), P36888 [UNDEFINED MUTATION]; conditions: Compound concentration 1000.0 nM
[35] = target: Serine/threonine-protein kinase MRCK alpha (Homo sapiens) (UniProt Q5VT25); conditions: Compound concentration 1000.0 nM
[36] = target: Cyclin-G-associated kinase (Homo sapiens) (UniProt O14976); conditions: Compound concentration 1000.0 nM
[37] = target: Serine/threonine-protein kinase TAO3 (Homo sapiens) (UniProt Q9H2K8); conditions: Compound concentration 1000.0 nM
[38] = target: TRAF2 and NCK-interacting protein kinase (Homo sapiens) (UniProt Q9UKE5); conditions: Compound concentration 1000.0 nM
[39] = target: Insulin receptor (Homo sapiens) (UniProt P06213); conditions: Compound concentration 1000.0 nM
[40] = target: Cyclin-dependent kinase-like 2 (Homo sapiens) (UniProt Q92772); conditions: Compound concentration 1000.0 nM
[41] = target: Muscarinic acetylcholine receptor M1 (Homo sapiens) (UniProt P11229); conditions: Compound concentration 10.0 uM
[42] = system: Phosphatidylinositol 4,5-bisphosphate 3-kinase catalytic subunit alpha isoform (Homo sapiens), P42336 [M1043I]; conditions: Compound concentration 1000.0 nM
[43] = target: Membrane-associated tyrosine- and threonine-specific cdc2-inhibitory kinase (Homo sapiens) (UniProt Q99640); conditions: Compound concentration 1000.0 nM
Membrane-associated tyrosine- and threonine-specific cdc2-inhibitory kinase (Homo sapiens), sequence (Q99640 whole entry): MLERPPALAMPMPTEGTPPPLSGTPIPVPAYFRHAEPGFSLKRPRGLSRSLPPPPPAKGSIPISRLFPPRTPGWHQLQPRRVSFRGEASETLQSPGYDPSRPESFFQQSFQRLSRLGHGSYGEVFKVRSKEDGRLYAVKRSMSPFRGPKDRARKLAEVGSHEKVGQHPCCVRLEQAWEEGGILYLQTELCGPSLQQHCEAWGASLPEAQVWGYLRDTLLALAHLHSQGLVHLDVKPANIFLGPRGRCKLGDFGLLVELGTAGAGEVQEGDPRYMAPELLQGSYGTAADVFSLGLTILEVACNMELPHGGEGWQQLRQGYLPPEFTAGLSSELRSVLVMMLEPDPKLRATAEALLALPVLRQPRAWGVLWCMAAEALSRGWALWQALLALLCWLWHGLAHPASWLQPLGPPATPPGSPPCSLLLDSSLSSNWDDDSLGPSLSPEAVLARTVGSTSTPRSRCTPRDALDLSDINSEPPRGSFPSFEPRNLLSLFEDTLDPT

Nociceptin receptor, sequence (P41146 whole entry, the tested form may be a part): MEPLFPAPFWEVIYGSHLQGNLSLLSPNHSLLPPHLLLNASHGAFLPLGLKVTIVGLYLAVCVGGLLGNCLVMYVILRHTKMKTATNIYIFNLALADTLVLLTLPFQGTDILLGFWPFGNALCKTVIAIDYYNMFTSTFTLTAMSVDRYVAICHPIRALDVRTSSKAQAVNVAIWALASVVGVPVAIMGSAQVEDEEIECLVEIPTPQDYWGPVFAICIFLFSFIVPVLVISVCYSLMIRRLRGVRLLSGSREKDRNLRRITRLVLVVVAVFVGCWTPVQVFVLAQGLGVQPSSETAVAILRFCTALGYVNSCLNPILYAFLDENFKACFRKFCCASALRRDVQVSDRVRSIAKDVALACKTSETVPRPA
Serine/threonine-protein kinase TAO3 (Homo sapiens), sequence (Q9H2K8 whole entry): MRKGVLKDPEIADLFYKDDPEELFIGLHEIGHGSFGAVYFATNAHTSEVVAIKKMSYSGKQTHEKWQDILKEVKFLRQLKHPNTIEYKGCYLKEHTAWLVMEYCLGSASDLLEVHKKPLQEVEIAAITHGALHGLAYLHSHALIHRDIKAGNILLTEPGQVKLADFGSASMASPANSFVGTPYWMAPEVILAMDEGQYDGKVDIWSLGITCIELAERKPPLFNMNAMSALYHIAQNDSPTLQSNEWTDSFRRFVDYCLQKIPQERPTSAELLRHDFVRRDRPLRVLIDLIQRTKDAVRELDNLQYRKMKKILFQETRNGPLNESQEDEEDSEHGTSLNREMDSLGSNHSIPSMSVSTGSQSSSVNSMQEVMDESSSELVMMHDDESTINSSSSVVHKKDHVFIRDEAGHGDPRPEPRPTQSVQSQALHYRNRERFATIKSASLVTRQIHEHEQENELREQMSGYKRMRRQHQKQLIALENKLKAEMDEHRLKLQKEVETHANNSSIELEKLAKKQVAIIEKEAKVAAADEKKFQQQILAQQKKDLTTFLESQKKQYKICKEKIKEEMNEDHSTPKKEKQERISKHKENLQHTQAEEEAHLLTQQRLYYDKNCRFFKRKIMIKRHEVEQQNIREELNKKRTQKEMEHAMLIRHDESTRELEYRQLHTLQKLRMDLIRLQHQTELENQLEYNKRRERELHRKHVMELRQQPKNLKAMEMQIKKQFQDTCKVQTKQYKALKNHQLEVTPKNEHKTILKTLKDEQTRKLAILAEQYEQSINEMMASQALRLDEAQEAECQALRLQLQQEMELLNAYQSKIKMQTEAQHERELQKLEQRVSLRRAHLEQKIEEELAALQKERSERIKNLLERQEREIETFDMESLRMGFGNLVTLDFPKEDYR
Mitogen-activated protein kinase 3 (Homo sapiens), sequence (P27361 whole entry): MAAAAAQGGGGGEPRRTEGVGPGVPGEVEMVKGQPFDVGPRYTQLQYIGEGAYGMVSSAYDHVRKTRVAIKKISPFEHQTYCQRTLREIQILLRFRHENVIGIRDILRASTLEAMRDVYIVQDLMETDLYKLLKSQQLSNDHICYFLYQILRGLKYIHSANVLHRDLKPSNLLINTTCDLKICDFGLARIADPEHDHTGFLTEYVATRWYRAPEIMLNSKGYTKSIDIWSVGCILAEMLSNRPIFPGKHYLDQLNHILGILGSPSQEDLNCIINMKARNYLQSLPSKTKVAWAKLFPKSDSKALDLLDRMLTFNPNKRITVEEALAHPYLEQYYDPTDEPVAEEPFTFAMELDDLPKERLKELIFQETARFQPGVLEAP
RAC-beta serine/threonine-protein kinase (Homo sapiens), sequence (P31751 whole entry): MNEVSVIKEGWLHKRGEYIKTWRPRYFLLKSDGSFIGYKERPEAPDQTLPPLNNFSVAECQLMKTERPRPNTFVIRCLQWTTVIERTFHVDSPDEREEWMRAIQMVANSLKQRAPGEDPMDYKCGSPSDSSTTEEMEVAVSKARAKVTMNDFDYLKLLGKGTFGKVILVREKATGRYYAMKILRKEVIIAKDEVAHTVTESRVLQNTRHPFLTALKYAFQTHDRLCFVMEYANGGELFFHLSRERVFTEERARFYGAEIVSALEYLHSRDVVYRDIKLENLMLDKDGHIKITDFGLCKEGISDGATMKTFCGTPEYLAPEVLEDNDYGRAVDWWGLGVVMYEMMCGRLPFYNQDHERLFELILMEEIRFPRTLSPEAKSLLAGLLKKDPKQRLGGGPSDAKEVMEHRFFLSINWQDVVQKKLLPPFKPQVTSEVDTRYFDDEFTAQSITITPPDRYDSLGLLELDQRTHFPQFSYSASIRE
Serine/threonine-protein kinase 32A (Homo sapiens), sequence (Q8WU08 whole entry): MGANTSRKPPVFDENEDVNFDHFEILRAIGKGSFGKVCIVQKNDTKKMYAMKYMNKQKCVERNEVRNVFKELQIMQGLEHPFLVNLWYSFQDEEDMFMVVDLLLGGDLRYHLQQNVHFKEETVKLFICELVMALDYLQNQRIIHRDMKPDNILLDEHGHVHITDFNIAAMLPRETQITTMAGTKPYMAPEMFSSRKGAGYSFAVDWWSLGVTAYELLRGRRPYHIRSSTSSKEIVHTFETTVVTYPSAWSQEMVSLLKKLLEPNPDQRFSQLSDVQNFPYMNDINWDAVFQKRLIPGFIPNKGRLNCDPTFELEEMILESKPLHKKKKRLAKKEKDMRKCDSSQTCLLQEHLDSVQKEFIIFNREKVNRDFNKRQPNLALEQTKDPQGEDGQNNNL
Receptor-interacting serine/threonine-protein kinase 4 (Homo sapiens), sequence (P57078 whole entry): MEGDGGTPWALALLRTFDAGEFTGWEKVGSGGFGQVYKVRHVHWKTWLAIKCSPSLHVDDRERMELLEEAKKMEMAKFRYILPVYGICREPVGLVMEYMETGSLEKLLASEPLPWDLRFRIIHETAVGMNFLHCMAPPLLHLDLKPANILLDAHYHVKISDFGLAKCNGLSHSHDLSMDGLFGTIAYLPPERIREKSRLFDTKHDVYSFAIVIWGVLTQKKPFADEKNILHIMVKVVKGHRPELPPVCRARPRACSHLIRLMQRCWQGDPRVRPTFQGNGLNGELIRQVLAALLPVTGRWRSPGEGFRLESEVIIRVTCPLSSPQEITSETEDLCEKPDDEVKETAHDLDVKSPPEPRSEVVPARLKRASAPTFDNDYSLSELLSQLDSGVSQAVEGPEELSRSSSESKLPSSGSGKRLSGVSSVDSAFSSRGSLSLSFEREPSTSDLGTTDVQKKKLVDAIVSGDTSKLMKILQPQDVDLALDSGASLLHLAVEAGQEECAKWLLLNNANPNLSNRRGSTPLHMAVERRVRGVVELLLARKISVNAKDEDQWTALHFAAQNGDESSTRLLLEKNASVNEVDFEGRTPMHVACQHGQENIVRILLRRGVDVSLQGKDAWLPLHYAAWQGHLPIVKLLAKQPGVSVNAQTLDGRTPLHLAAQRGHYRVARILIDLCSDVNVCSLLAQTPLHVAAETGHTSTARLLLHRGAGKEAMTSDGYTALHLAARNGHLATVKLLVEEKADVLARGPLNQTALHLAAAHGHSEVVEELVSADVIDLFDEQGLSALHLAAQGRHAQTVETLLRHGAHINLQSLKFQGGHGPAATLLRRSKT
Tyrosine-protein kinase HCK (Homo sapiens), sequence (P08631 2-526 limits assumed): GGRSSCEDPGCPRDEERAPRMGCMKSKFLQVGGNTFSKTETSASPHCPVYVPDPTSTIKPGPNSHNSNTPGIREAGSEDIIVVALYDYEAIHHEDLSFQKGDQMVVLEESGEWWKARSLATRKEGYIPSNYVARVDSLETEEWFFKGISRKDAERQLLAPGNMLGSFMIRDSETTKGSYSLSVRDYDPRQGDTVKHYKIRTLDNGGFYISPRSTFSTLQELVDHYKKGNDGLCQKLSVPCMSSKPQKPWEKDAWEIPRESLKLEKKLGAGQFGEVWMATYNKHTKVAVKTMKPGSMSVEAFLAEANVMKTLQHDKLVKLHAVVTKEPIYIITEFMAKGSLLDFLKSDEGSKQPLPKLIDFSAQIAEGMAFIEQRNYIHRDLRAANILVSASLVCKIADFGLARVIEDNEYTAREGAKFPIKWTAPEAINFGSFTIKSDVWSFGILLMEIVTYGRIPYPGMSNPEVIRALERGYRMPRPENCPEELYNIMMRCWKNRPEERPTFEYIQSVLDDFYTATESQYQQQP
Aurora kinase C (Homo sapiens), sequence (Q9UQB9 whole entry): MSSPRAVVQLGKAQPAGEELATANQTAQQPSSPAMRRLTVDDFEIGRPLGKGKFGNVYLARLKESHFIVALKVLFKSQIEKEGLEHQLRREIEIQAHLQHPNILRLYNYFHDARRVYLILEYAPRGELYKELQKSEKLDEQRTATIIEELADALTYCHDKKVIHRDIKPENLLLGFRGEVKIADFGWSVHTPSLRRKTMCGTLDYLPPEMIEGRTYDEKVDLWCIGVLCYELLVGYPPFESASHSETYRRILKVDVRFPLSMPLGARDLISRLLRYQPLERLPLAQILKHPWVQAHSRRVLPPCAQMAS

CC(=O)c1c(NS(C)(=O)=O)c2cc(-c3ccc(Cl)cc3)c(-c3ccc(Cl)cc3Cl)nc2n(C)c1=O [MRL-CB1-NC]
residual activity [1]: 100% | inhibition (Nociceptin receptor; Compound concentration 10.0 uM): -2.4% | residual activity [2]: 88% | residual activity [3]: 100% | residual activity [4]: 76% | residual activity [5]: 87% | residual activity [6]: 100% | residual activity [7]: 87% | residual activity [8]: 100% | residual activity [9]: 100% | residual activity [10]: 100% | residual activity [11]: 61% | residual activity [12]: 100% | residual activity [13]: 99% | residual activity [14]: 100% | residual activity [15]: 87% | residual activity [16]: 79% | residual activity [17]: 100% | residual activity [18]: 93% | Inverse agonism (Cannabinoid receptor 2): 38.3% | residual activity [19]: 100% | residual activity [20]: 92% | residual activity [21]: 76% | residual activity [22]: 80% | residual activity [23]: 100% | residual activity [24]: 100% | residual activity [25]: 100% | residual activity [26]: 99% | inhibition [27]: 16.2% | residual activity [28]: 100% | residual activity [29]: 76% | residual activity [30]: 100% | residual activity [31]: 100% | residual activity [32]: 81% | residual activity [33]: 96% | residual activity [34]: 94% | residual activity [35]: 95% | residual activity [36]: 100% | residual activity [37]: 72% | residual activity [38]: 93% | residual activity [39]: 73% | residual activity [40]: 99% | inhibition [41]: 3.28% | residual activity [42]: 100% | residual activity [43]: 99%

CC(=O)Nc1c(C(C)=O)c(=O)n(C)c2nc(-c3ccc(Cl)cc3Cl)c(-c3ccc(Cl)cc3)cc12 [NAPHTHYRIDINONE]
residual activity [1]: 100% | Ki (Nociceptin receptor): 10 µM | pKi (Nociceptin receptor): 5 | residual activity [2]: 100% | residual activity [3]: 100% | residual activity [4]: 87% | residual activity [5]: 100% | residual activity [6]: 100% | residual activity [7]: 82% | residual activity [8]: 100% | residual activity [9]: 100% | residual activity [10]: 100% | residual activity [11]: 93% | residual activity [12]: 100% | residual activity [13]: 100% | residual activity [14]: 100% | residual activity [15]: 100% | residual activity [16]: 93% | residual activity [17]: 100% | residual activity [18]: 100% | IC50 (Cannabinoid receptor 2): 4.63 µM (not active) | residual activity [19]: 100% | residual activity [20]: 100% | residual activity [21]: 100% | residual activity [22]: 100% | residual activity [23]: 100% | residual activity [24]: 100% | residual activity [25]: 100% | residual activity [26]: 95% | inhibition [27]: 0.711% | residual activity [28]: 100% | residual activity [29]: 72% | residual activity [30]: 100% | residual activity [31]: 91% | residual activity [32]: 100% | residual activity [33]: 100% | residual activity [34]: 100% | residual activity [35]: 100% | residual activity [36]: 100% | residual activity [37]: 63% | residual activity [38]: 100% | residual activity [39]: 100% | residual activity [40]: 100% | inhibition [41]: -3.7% | residual activity [42]: 100% | residual activity [43]: 100%
